Source: patent publication US11464854B2, “Methods and compositions relating to adjuvants” (Children's Medical Center Corporation, priority 2017, dated 2022)

Tests used:
TNF = assay: Rat pharmacodynamics: serum TNF by ELISA; assay type: in vivo, rats; conditions: rat, in vivo, sc
[1] = tested on: cytokine and IFN-inducible gene expression in draining lymph nodes and spleen; assay type: in vivo, mice; conditions: mouse, in vivo, sc

CCOCc1nc2c(N)nc3ccccc3c2n1CC(C)(C)O [R848, Resiquimod, reference compound]
Blood tumor necrosis factor (TNF) concentrations, peak (TNF): ~1,000 pg/ml
time of peak cytokine mRNA expression [1]: 1 to 3 h
